Reference: publication PMC10819458, “Using Pharmacokinetic–Pharmacodynamic Modeling to Study the Main Active Substances of the Anticancer Effect in Mice from Panax ginseng–Ophiopogon japonicus” (Molecules, 2024)
Where two headings read alike, the source gives them in different places. One block for each compound: values may come before it.

Assay: Lung-tissue pharmacokinetics of PG–OJ components in tumor-bearing mice (UPLC–MS/MS)
Format: in vivo, BALB/c nude male mice
Conditions: for Cmax: read-out: Cmax; for MRT last: read-out: MRT(0–t) (converted)
Excerpt: This study employed Ultra-Performance Liquid Chromatography–Mass Spectrometry (UPLC–MS/MS) to examine the pharmacokinetic properties of 20 bioactive components in a cell-derived xenograft (CDX) model following oral administration of a 10.2 g/kg PG–OJ extract.
Healthy BALB/c nude male mice (weight: 18–21 g) were purchased from Beijing Huafukang Biotechnology Co., Ltd. (Beijing, China, License Number: SCXK (Jing) 2021-0006). After 3 days of acclimatization, the mice were randomly divided into the control group (CG), model group (MG), and the combined-administration group of P. ginseng and O. japonicus (HM1-HM13) ([…], four-fold clinical-equivalent doses). Subsequently, except for the CG, 0.2 mL (approximately 2 × 10^7 cells) of A549 cell suspension was aspirated with a 1 mL syringe and injected into the right axillary fossa of the model group and drug-administration-group mice. The control-group mice were injected with an equal volume of PBS at the same location. The tumor diameter was measured daily using a caliper. The model was successful when the tumor diameter > 3 mm. The combined-administration group of P. ginseng and O. japonicus was given the corresponding drug orally, once a day, with 0.2 mL/mouse each time. The control group and the model group mice were given the same volume of distilled water, continuously orally for 21 days. During this period, the body weight and tumor volume of the mice were recorded. At the end of the last administration, the mice were […] 0.083, 0.167, 0.25, 0.5, 0.75, 1, 2, 3, 4, 6, 8, 12, 24 h later. After injecting 0.1% pentobarbital sodium, blood was collected from the eye-socket vein, the mice were decapitated, and the tumor and lung tissues were carefully removed.
After homogenizing 50 mg of right-lung-tissue sample, 2 mL of acetonitrile was added to precipitate proteins. The mixture was oscillated for 2 min and then centrifuged for 10 min (12,000 rpm, 4 °C). The supernatant from the new centrifuge tube was collected and dried with nitrogen at room temperature. Finally, the supernatant was redissolved in 50 μL of acetonitrile solution containing 0.1% formic acid. After oscillating for 1 min, another centrifugation step was performed, and the resulting supernatant was used for analysis.
Samples were analyzed on the Vanquish UPLC System (Thermo, Waltham, MA, USA). The Agilent C18 column (4.6 × 150 mm, 4 μm, PN:693970-902T) was selected. The mobile phase was composed of 0.1% formic acid aqueous solution (A) and 0.1% formic acid acetonitrile solution (B). The procedure of gradient elution was as follows: 0–10 min, 95–75% A; 10–25 min, 75–45% A; 25–40 min, 45–30% A; 40–50 min, 30–5% A; 55–55.1 min, 5–95% A; 55.1–60 min, 95% A. The column temperature was set to 30 °C with the flow rate of 0.3 mL/min and the injection volume of 3.0 μL. The mass-spectrometry detection with negative-ion mode was carried out using an Orbitrap Exploris 120 Mass Spectrometer (Thermo, Waltham, MA, USA) and Electrospray ionization (ESI). The sheath-gas-flow rate was […] and the auxiliary-gas-flow rate was […]. The capillary temperature was 325 °C, and the resolution was 120,000 in full scan mode with the mass scan range of 80~1500 m/z. The secondary cracking was performed with HCD at a collision voltage of 30 eV, and unnecessary MS/MS information was removed using the dynamic exclusion method.

[1] = lung tissue, A549 tumor-bearing mice, intragastric PG–OJ extract 10.2 g/kg (6.8 g/kg elsewhere in the source), mean ± SD, n = 6
[2] = male, BALB/c nude, mouse, po, lung tissue, A549 tumor-bearing mice, intragastric PG–OJ extract 10.2 g/kg (6.8 g/kg elsewhere in the source), mean ± SD, n = 6
[3] = male, BALB/c nude, mouse, in vivo, po, lung tissue, A549 tumor-bearing mice, intragastric PG–OJ extract 10.2 g/kg (6.8 g/kg elsewhere in the source), mean ± SD, n = 6

Structure (SMILES): CC(C)=CC/C=C(\C)[C@H]1CC[C@]2(C)[C@@H]1[C@H](O)C[C@@H]1[C@@]3(C)CC[C@H](O[C@@H]4O[C@H](CO)[C@@H](O)[C@H](O)[C@H]4O[C@@H]4O[C@H](CO)[C@@H](O)[C@H](O)[C@H]4O)C(C)(C)[C@@H]3CC[C@]12C [Ginsenoside Rg5]
AUC(0–t) [1]: 1,342,117.43 ± 45,675.73 ng/g·min
AUC(0–∞) [1]: 1,372,202.28 ± 48,963.33 ng/g·min
AUC(0–∞) compared with other components (lung tissue, oral PG–OJ extract, in words): significantly higher than those of other components
Tmax (male, BALB/c nude, mouse, lung tissue, po, 10.2 g/kg, lung tissue, A549 tumor-bearing mice, intragastric PG–OJ extract 10.2 g/kg (6.8 g/kg elsewhere in the source), mean ± SD, n = 6, read-out: Tmax (converted)): 4 h
Tmax (male, BALB/c nude, mouse, lung tissue, po, 10.2 g/kg, lung tissue, oral PG–OJ extract, read-out: time to reach peak concentration): 12 h
Cmax [2]: 7970 ± 442 ng/g
MRT last [2]: 3.07 h
half-life (male, BALB/c nude, mouse, po, lung tissue, A549 tumor-bearing mice, intragastric PG–OJ extract 10.2 g/kg (6.8 g/kg elsewhere in the source), mean ± SD, n = 6, read-out: T1/2): 2.11 ± 0.157 h
exposure level in lung tissue (oral PG–OJ extract, in words): highest exposure level

Structure (SMILES): CC(C)=CCC[C@](C)(O)[C@H]1CC[C@]2(C)[C@@H]1[C@H](O)C[C@@H]1[C@@]3(C)CC[C@H](O)C(C)(C)[C@@H]3[C@@H](O[C@@H]3O[C@H](CO)[C@@H](O)[C@H](O)[C@H]3O)C[C@]12C [Ginsenoside Rh1]
AUC(0–t) [1]: 1303.44 ± 70.16 ng·min/g
AUC(0–∞) [1]: 1724.14 ± 411.48 ng·min/g
time to reach maximum concentration (Cmax) after administration (lung tissue, oral PG–OJ extract): ≤ 15 min
half-life (male, BALB/c nude, mouse, in vivo, po, 10.2 g/kg, lung tissue, A549 tumor-bearing mice, intragastric PG–OJ extract 10.2 g/kg (6.8 g/kg elsewhere in the source), mean ± SD, n = 6, read-out: T1/2): 6.97 ± 4.9 h
half-life (male, BALB/c nude, mouse, in vivo, po, 10.2 g/kg, lung tissue, oral PG–OJ extract, read-out: half-life (converted)): 6.9 h
Cmax [3]: 8.98 ± 0.2 ng/g
MRT last [3]: 3.18 h
Tmax (male, BALB/c nude, mouse, in vivo, po, lung tissue, A549 tumor-bearing mice, intragastric PG–OJ extract 10.2 g/kg (6.8 g/kg elsewhere in the source), mean ± SD, n = 6, read-out: Tmax (converted)): 0.208 h
exposure level in lung tissue (oral PG–OJ extract, in words): extremely low

T1/2 (mouse, in vivo, po): 4.2077 ± 0.198 h
Tmax (mouse, in vivo, po): 0.2083 ± 0.0482 h
time to reach maximum concentration (Cmax) after administration (mouse, in vivo, po): ≤ 15 min
Structure (SMILES): CC1(C)CC[C@]2(C(=O)O[C@@H]3O[C@H](CO)[C@@H](O)[C@H](O)[C@H]3O)CC[C@]3(C)C(=CC[C@@H]4[C@@]5(C)CC[C@H](O[C@@H]6O[C@H](C(=O)O)[C@@H](O)[C@H](O)[C@H]6O[C@@H]6O[C@H](CO)[C@@H](O)[C@H](O)[C@H]6O)C(C)(C)[C@@H]5CC[C@]43C)[C@@H]2C1 [Ginsenoside Ro]

T1/2 (mouse, in vivo, po): 20.3208 ± 6.0457 h
Tmax (mouse, in vivo, po): 2.5 ± 0 h
Structure (SMILES): Cc1c(O)c(C)c2c(c1O)C(=O)[C@H](Cc1ccc3c(c1)OCO3)CO2 [Methylophiopogonanone A]

T1/2 (mouse, in vivo, po): 6.5088 ± 1.6737 h
Tmax (mouse, in vivo, po): 2.5 ± 0 h
Structure (SMILES): COc1ccc(C[C@@H]2COc3c(C)c(O)c(C)c(O)c3C2=O)cc1 [Methylophiopogonanone B]

Structure (SMILES): CC(C)=CCC[C@](C)(O[C@@H]1O[C@H](CO)[C@@H](O)[C@H](O)[C@H]1O)[C@H]1CC[C@]2(C)[C@@H]1[C@H](O)C[C@@H]1[C@@]3(C)CC[C@H](O)C(C)(C)[C@@H]3[C@@H](O[C@@H]3O[C@H](CO)[C@@H](O)[C@H](O)[C@H]3O[C@@H]3OC[C@@H](O)[C@H](O)[C@H]3O)C[C@]12C [Notoginsenoside R1]
T1/2 (mouse, in vivo, po): 1.24 ± 0.0245 h
Tmax (mouse, in vivo, po): 0.125 ± 0.059 h
exposure level in lung tissue (mouse, in vivo, po): extremely low
time to reach maximum concentration (Cmax) after administration (mouse, in vivo, po): ≤ 15 min

T1/2 (mouse, in vivo, po): 10.572 ± 2.3632 h
Tmax (mouse, in vivo, po): 0.25 ± 0 h
half-life (mouse, in vivo, po): 10.6 h
time to reach maximum concentration (Cmax) after administration (mouse, in vivo, po): ≤ 15 min
Structure (SMILES): CC(C)(O)[C@H]1CC[C@@](C)([C@H]2CC[C@]3(C)[C@@H]2[C@H](O)C[C@@H]2[C@@]4(C)CC[C@H](O)C(C)(C)[C@@H]4[C@@H](O[C@@H]4O[C@H](CO)[C@@H](O)[C@H](O)[C@H]4O)C[C@]23C)O1 [Pseudoginsenoside RT5]
